Results: BindingDB's records for doi:10.1021/jm00020a029 (Merck Research Laboratories, 1995)
*1 amine or outer side, *2 acyl side, *3 side chain or, on linkers, in order; H or OH if unused. Where a SMILES comes first, the peptide text is derived from it. [ ]: non-standard residue; d: D form. ξ: configuration not given here. Phe(3,4-Cl2) = N[C@@H](Cc1ccc(Cl)c(Cl)c1)C(=O)O; X1 = COc1c(I)cc(C[C@H](N[*:1])C(=O)[*:2])cc1I; ξTyr(3,5-I2) = NC(Cc1cc(I)c(O)c(I)c1)C(=O)O; Tyr(3-I) = N[C@@H](Cc1ccc(O)c(I)c1)C(=O)O; Phe(4-F) = N[C@@H](Cc1ccc(F)cc1)C(=O)O; hArg = N=C(N)NCCCC[C@H](N)C(=O)O; Cha = N[C@@H](CC1CCCCC1)C(=O)O

Assays:
[1] = Evaluated for the activity of Radio-ligand Peptides upon the activation of human thrombin receptor measured by platelet aggregation
[2] = target: T1, Proteinase-activated receptor 1 (Homo sapiens, UniProt P25116); assay: Evaluated for the activation of human thrombin receptor measured by platelet aggregation
T1 sequence (P25116 whole entry): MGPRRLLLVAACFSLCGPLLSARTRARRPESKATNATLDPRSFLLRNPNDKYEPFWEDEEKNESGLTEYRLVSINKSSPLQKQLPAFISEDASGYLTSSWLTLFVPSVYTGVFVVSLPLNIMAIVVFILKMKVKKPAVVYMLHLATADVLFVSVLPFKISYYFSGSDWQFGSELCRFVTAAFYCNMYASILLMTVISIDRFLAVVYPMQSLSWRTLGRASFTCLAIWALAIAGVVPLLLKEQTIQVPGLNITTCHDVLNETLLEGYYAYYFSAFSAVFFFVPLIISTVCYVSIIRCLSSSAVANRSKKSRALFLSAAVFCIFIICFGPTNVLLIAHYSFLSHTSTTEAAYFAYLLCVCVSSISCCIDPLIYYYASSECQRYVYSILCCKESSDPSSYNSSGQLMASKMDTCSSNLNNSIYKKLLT

[3] = Evaluated for the activation of human thrombin receptor measured by platelet aggregation

Q: With `C[C@H](N)C(=O)N[C@@H](Cc1ccc(F)cc1)C(=O)N[C@@H](CCCN=C(N)N)C(=O)N[C@@H](CC1CCCCC1)C(=O)N[C@@H](CCCCN=C(N)N)C(=O)N[C@@H](Cc1ccc(O)c(I)c1)C(N)=O` [(S)-2-((S)-2-{(S)-2-[(S)-2-((S)-2-Amino-propionylamino)-3-(4-fluoro-phenyl)-propionylamino]-5-guanidino-pentanoylamino}-3-cyclohexyl-propionylamino)-6-guanidino-hexanoic acid [1-carbamoyl-2-(4-hydroxy-3-iodo-phenyl)-ethyl]-amide] (H-A[Phe(4-F)]R[Cha][hArg][Tyr(3-I)]-NH2) as the molecule, how does the EC50 [1] read?
A: Its EC50 is 0.03 µM.

Q: With `C[C@H](N)C(=O)N[C@@H](Cc1ccc(F)cc1)C(=O)N[C@@H](CCCNC(=N)N)C(=O)N[C@@H](CC1CCCCC1)C(=O)N[C@@H](CCCCNC(=N)N)C(=O)NC(Cc1cc(I)c(O)c(I)c1)C(N)=O` (stereo partly drawn) [(S)-2-((S)-2-{(S)-2-[(S)-2-((S)-2-Amino-propionylamino)-3-(4-fluoro-phenyl)-propionylamino]-5-guanidino-pentanoylamino}-3-cyclohexyl-propionylamino)-6-guanidino-hexanoic acid [1-carbamoyl-2-(4-hydroxy-3,5-diiodo-phenyl)-ethyl]-amide] (H-A[Phe(4-F)]R[Cha][hArg][ξTyr(3,5-I2)]-NH2) as the molecule, how does the EC50 [1] read?
A: Its EC50 is 0.15 µM.

Q: For `C[C@H](N)C(=O)N[C@@H](Cc1ccc(F)cc1)C(=O)N[C@@H](CCCNC(=N)N)C(=O)N[C@@H](CC1CCCCC1)C(=O)N[C@@H](CCCCNC(=N)N)C(=O)N[C@@H](Cc1ccc(O)cc1)C(N)=O` [(S)-2-((S)-2-{(S)-2-[(S)-2-((S)-2-Amino-propionylamino)-3-(4-fluoro-phenyl)-propionylamino]-5-guanidino-pentanoylamino}-3-cyclohexyl-propionylamino)-6-guanidino-hexanoic acid [1-carbamoyl-2-(4-hydroxy-phenyl)-ethyl]-amide] (H-A[Phe(4-F)]R[Cha][hArg]Y-NH2), which EC50 [2] is on record?
A: The EC50 was 0.16 µM.

Q: With `COc1c(I)cc(C[C@H](NC(=O)[C@H](Cc2ccc(Cl)c(Cl)c2)NC(=O)[C@H](C)N)C(=O)N[C@@H](CC2CCCCC2)C(=O)N[C@@H](CCCNC(=N)N)C(N)=O)cc1I` [(S)-2-{(S)-2-[(S)-2-[(S)-2-((S)-2-Amino-propionylamino)-3-(3,4-dichloro-phenyl)-propionylamino]-3-(3,5-diiodo-4-methoxy-phenyl)-propionylamino]-3-cyclohexyl-propionylamino}-5-guanidino-pentanoic acid amide] (H-A[Phe(3,4-Cl2)][X1][Cha]R-NH2) as the molecule, how does the EC50 [3] read?
A: Its EC50 is 0.01 µM.

Q: And the EC50 [1]?
A: The EC50 was 1.5 µM.

Q: Which EC50 [3] does the source give for `CC(C)C[C@H](NC(=O)[C@H](Cc1ccc(Cl)c(Cl)c1)NC(=O)[C@H](C)N)C(=O)N[C@@H](CC1CCCCC1)C(=O)N[C@@H](CCCNC(=N)N)C(N)=O` [(S)-2-[(S)-2-((S)-2-Amino-propionylamino)-3-(3,4-dichloro-phenyl)-propionylamino]-4-methyl-pentanoic acid [(S)-1-((S)-1-carbamoyl-4-guanidino-butylcarbamoyl)-2-cyclohexyl-ethyl]-amide] (H-A[Phe(3,4-Cl2)]L[Cha]R-NH2) here?
A: The EC50 was 0.27 µM.

Q: And the EC50 [1]?
A: The EC50 was 0.3 µM.

Q: With `CC(C)C[C@H](NC(=O)[C@H](CC(C)C)NC(=O)[C@H](Cc1ccc(Cl)c(Cl)c1)NC(=O)[C@H](C)N)C(=O)N[C@@H](CCCNC(=N)N)C(N)=O` [(S)-2-[(S)-2-((S)-2-Amino-propionylamino)-3-(3,4-dichloro-phenyl)-propionylamino]-4-methyl-pentanoic acid [(S)-1-((S)-1-carbamoyl-4-guanidino-butylcarbamoyl)-3-methyl-butyl]-amide] (H-A[Phe(3,4-Cl2)]LLR-NH2) as the molecule, how does the EC50 [3] read?
A: Its EC50 is 0.5 µM.

Q: With `CC(=O)N[C@@H](Cc1ccccc1)C(=O)N[C@@H](CC(C)C)C(=O)N[C@@H](CC(C)C)C(=O)N[C@@H](CCCNC(=N)N)C(N)=O` [(S)-2-((S)-2-Acetylamino-3-phenyl-propionylamino)-4-methyl-pentanoic acid [(S)-1-((S)-1-carbamoyl-4-guanidino-butylcarbamoyl)-3-methyl-butyl]-amide] (Ac-FLLR-NH2) as the molecule, how does the EC50 [3] read?
A: Its EC50 is 200 µM.
